From PMC4516313 (Journal of Medicinal Chemistry, 2015)
Where two headings read alike, the source gives them in different places.

Tests used:
[1] = test system: rats
[2] = test system: D3R; conditions: cited from earlier work
[3] = test system: rats; conditions: cited from earlier work
[4] = test system: rhesus monkeys; conditions: cited from earlier work
[5] = test system: squirrel monkeys; conditions: cited from earlier work
[6] = test system: rhesus monkeys; conditions: cited from earlier work; remark: listed apart in the source
[7] = test system: abstinent smokers; conditions: cited from earlier work
[8] = test system: overweight and obese subjects; conditions: cited from earlier work
[9] = test system: tobacco smokers; conditions: smokers after overnight abstinence; cited from earlier work
[10] = test system: humans; conditions: cited from earlier work
[11] = test system: 64 radioligand/enzyme assays; conditions: 10 μM; e.g. α1 adrenergic, α2 adrenergic, histamine H1, sodium channel site 2, CCK1, NK2
[12] = test system: rats; conditions: unpublished results
[13] = test system: cynomolgus monkeys
[14] = test system: rhesus monkeys; conditions: 5 day treatment, 3.0 mg/kg i.v., two of three monkeys
[15] = test system: monkeys; conditions: monkeys trained to discriminate cocaine, preliminary unpublished results
[16] = test system: rats; conditions: cited from earlier work; remark: listed apart in the source
[17] = test system: rats; conditions: cited from earlier work; remark: listed apart in the source
[18] = test system: D3R; conditions: primates, PET, oral 1.0 mg/kg; cited from earlier work
[19] = test system: monkeys; conditions: cited from earlier work
[20] = test system: cocaine abusers; conditions: cited from earlier work
[21] = test system: monkeys; conditions: 5 day treatment; cited from earlier work
[22] = history of long access (6 h per day, 6 days per week)
[23] = history of short access (1 h per day, 3 days per week)

## O=C(NCC[C@@H](O)CN1CCN(c2cccc(Cl)c2Cl)CC1)c1cc2ccccc2[nH]1 [(R)-1]
[1]; 3.0 mg/kg i.p.
  Dunnett's test p vs vehicle, PR break points normalized to baseline: < 0.001
  Dunnett's test p vs vehicle, number of METH injections: < 0.01
[1]; 10 mg/kg i.p.
  Dunnett's test p vs vehicle, PR break points normalized to baseline: < 0.001
  Dunnett's test p vs vehicle, number of METH injections: < 0.01

## CN(C)C(=O)N[C@H]1CC[C@H](CCN2CCN(c3cccc(Cl)c3Cl)CC2)CC1 [Compound 6, cariprazine]
[2]
  D3R-preferential: approximately 10 fold

## O=C(NC/C=C/CN1CCN(c2cccc(Cl)c2Cl)CC1)c1ccc(-c2ccccn2)cc1 [Compound 3]
[3]; [22]
  PR METH self-administration: reduced PR METH self-administration
[3]; [23]
  PR METH self-administration: in contrast to 3

## O=C(NCCCCN1CCN(c2cccc(Cl)c2Cl)CC1)c1ccc(-c2ccccn2)cc1 [Compound 17, N-(4-(4-(2,3-dichlorophenyl)piperazin-1-yl)butyl)-4-(pyridin-2-yl)benzamide]
[4]; monkeys, second-order schedule of reinforcement
  cocaine- and food-maintained responding: decreased both cocaine- and food-maintained responding
[4]; rhesus monkeys
  cocaine's discriminative stimulus effects: attenuated cocaine’s discriminative stimulus effects
[5]
  cocaine self-administration and cocaine-induced reinstatement: failed to attenuate cocaine self-administration or cocaine-induced reinstatement
[3]; [22]
  PR METH self-administration: reduced PR METH self-administration
[3]; [23]
  PR METH self-administration: also reduced PR METH self-administration
[6]; cocaine-naïve rhesus monkeys
  yawning: failed to do so
[6]; monkeys with a history of cocaine self-administration
  yawning: induced yawning similar in magnitude to quinpirole

## Cc1ncoc1-c1nnc(SCCCN2C[C@@H]3C[C@]3(c3ccc(C(F)(F)F)cc3F)C2)n1C [Compound 7]
[7]
  attentional bias, Stroop Task: partially attenuated an attentional bias
[8]
  approach bias: reduced approach bias
  attentional bias to palatable food cues: reduced
[9]
  craving: transiently alleviated craving

## COc1ccccc1N1CCN(CCCCNC(=O)c2ccc3ccccc3c2)CC1 [Compound 8]
[10]
  outcome of clinical trials for cocaine abuse: failed in clinical trials for cocaine abuse

## O=C(NCCC(O)CN1CCN(c2cccc(Cl)c2Cl)CC1)c1cc2ccccc2[nH]1 (racemic) [(±)-1, N-(4-(4-(2,3-dichlorophenyl)piperazin-1-yl)-3-hydroxybutyl)-1H-indole-2-carboxamide]
[11]
  hits in the receptor panel: only “hit” a few
[12]
  effect on 7-OH DPAT-induced yawning: attenuated 7-OH DPAT-induced yawning in rats
[1]; 3.0 mg/kg i.p.
  Dunnett's test p vs vehicle, PR break points normalized to baseline: > 0.05
  Dunnett's test p vs vehicle, number of METH injections: > 0.05
[1]; 10 mg/kg i.p.
  Dunnett's test p vs vehicle, PR break points normalized to baseline: < 0.001
  Dunnett's test p vs vehicle, number of METH injections: < 0.001
[1]; i.p., 3.0 and 10 mg/kg
  effect on PR break points normalized to baseline responding: significantly reduced PR break points
  effect on number of METH injections (PR): significantly and dose-dependently reduced METH injections
[13]; 0.01 mg/kg cocaine available as the alternative to food
  cocaine choice, group data, posthoc comparison: significant increase in cocaine choice
[13]; seven cynomolgus monkeys, acute i.v., in all but one monkey
  effect on cocaine choice curve: either shifted the cocaine choice curve to the left (4 subjects) or had no effect (2 subjects)
[14]
  effect on METH choice curve: produced a leftward shift of the METH choice curve
[15]
  substitution for cocaine: does not substitute for cocaine

## O=C(NCCCCN1CCN(c2cccc(Cl)c2Cl)CC1)c1ccc2c(c1)Cc1ccccc1-2 [Compound 2, N-(4-(4-(2,3-dichlorophenyl)piperazin-1-yl)butyl)-9H-fluorene-2-carboxamide]
[16]
  break point, cocaine PR schedule: significantly lowered the break point
[17]
  cue- and cocaine-induced reinstatement of cocaine seeking: blocked both cue- and cocaine-induced reinstatement of cocaine seeking

## CCCN1CCC[C@@H]2Cc3n[nH]cc3C[C@H]21 [quinpirole, reference compound]
[6]; cocaine-naïve rhesus monkeys
  yawning: induces robust yawning

## O=C1CC2(CCCC2)CC(=O)N1CCCCN1CCN(c2ncccn2)CC1 [buspirone]
[18]
  D3R occupancy: < 20%
[19]; monkeys self-administering cocaine
  cocaine-maintained vs food-reinforced behavior: decreased cocaine-maintained behavior to a larger degree than food-reinforced behavior
[19]; rhesus monkeys, continuous infusions
  cocaine self-administration vs food-reinforced responding: decreased cocaine self-administration to a greater degree than food-reinforced responding
[20]; 60 mg
  cocaine use: increased cocaine use in women
[20]
  treatment-emergent adverse events: did not include increases in blood pressure
[21]
  cocaine choice: increased cocaine choice

## O=C(NCC[C@H](O)CN1CCN(c2cccc(Cl)c2Cl)CC1)c1cc2ccccc2[nH]1 [(S)-1]
[12]
  effect on 7-OH DPAT-induced yawning: attenuated 7-OH DPAT-induced yawning in rats
[1]; 3.0 mg/kg i.p.
  Dunnett's test p vs vehicle, PR break points normalized to baseline: < 0.01
  Dunnett's test p vs vehicle, number of METH injections: > 0.05
[1]; 10 mg/kg i.p.
  Dunnett's test p vs vehicle, PR break points normalized to baseline: < 0.001
  Dunnett's test p vs vehicle, number of METH injections: < 0.001
